Columns and labels:
Type in all cases: in vivo, human
[1] = DUET trial: treatment emergent adverse events and edema severity; conditions: for Patients with Edema, Severity Grade 0 / Patients with Edema, Severity Grade 1+ to 2+ / Patients with Edema, Severity Grade 3+ to 4+ / Percent of patients having treatment emergent adverse effects: Any / Percent of patients having treatment emergent adverse effects: Drug-related / Percent of patients having treatment emergent adverse effects: Leading to dose change or interruption / Percent of patients having treatment emergent adverse effects: Leading to drug discontinuation / Percent of patients having treatment emergent adverse effects: Leading to study withdrawal / Percent of patients having treatment emergent adverse effects: Serious / Percent of patients with Cough / Percent of patients with Diarrhea / Percent of patients with Dizziness / Percent of patients with Edema/edema peripheral / Percent of patients with Fatigue / Percent of patients with Headache / Percent of patients with Hypotension/orthostatic hypotension / Percent of patients with Muscle spasms / Percent of patients with Nasal congestion / Percent of patients with Nausea / Percent of patients with Upper abdominal pain / Percent of patients with Upper respiratory tract infection / Percent of patients with Vomiting: human, in vivo; for Percent of patients having treatment emergent adverse effects: Death: irbesartan n=36, sparsentan all doses n=73
Excerpt: (§1) DUET trial is a phase 2, double-blind, randomized, active-control, dose-escalation study (NCT01613118) that evaluates the efficacy and safety of sparsentan as a treatment for primary focal segmental glomerulosclerosis (FSGS), a rare disorder characterized by massive proteinuria and progressive loss of kidney function. Patients (ranging in age from 8 years to 75 years) with biopsy-proven primary FSGS (or documentation of a genetic mutation in a podocyte protein associated with the disease) having baseline urine protein to creatinine (“UP/C”) ratios greater than 1 g/g and estimated glomerular filtration rates greater than 30 ml/min were eligible for the study. The inclusion criteria also included a mean seated blood pressure >[…] and <145/96 mmHg for patients aged 18 years or older, or, for patients aged <18 years of age, a mean seated blood pressure of >90/60 mmHg and <95th percentile for age, gender, and height. The inclusion criteria included an allowance for a stable dose of immunosuppressive medication for ≥1 month. Exclusion criteria included secondary FSGS; significant medical conditions related to cardiac, hepatic, or immune function; body mass index >[…] for adults or in the 99th percentile plus 5 for pediatric patients; hematocrit <27% or hemoglobin <[…]; serum potassium >5.5 mEq/L; and women who were pregnant, breastfeeding, or of child-bearing potential who were unwilling to use two methods of contraception.
(§2) Patients who signed consent and met all inclusion and exclusion criteria during the screening phase underwent a 2-week angiotensin receptor blocker (ARB) and angiotensin converting enzyme (ACE) inhibitor washout period before being randomly assigned to one of the three escalating dose cohorts receiving sparsentan (200 mg/day; 400 mg/day; and 800 mg/day) or a fixed maximal dose of active control (the ARB irbesartan, at 300 mg/day) in a 3:1 ratio within each cohort. The primary endpoint was the change in UP/C ratio (determined as a measure of urinary protein excretion) from baseline. The proportion of patients achieving UP/C ratio ≤1.5 g/g with >40% reduction in UP/C ratio at Week 8, a modified responder analysis, was evaluated as secondary endpoint.
The incidences of specific treatment emergent adverse events for which the incidence was greater than 5% across all patients are shown in Table 7. Symptoms such as headache, dizziness, and edema may be associated with hypotension and some of those symptoms were more frequent in patients treated with sparsentan relative to those patients treated with irbesartan. However, there was no significant different between irbesartan-treated patients and sparsentan-treated patients in the worsening of existing edema (Table 8).

[2] = DUET trial: eGFR and serum markers; conditions: double-blind period
Excerpt: as §1, §2

[3] = DUET trial: systolic and diastolic blood pressure; conditions: double-blind period; irbesartan n=32, sparsentan n=64
Excerpt: DUET trial is a phase 2, double-blind, randomized, active-control, dose-escalation study (NCT01613118) that evaluates the efficacy and safety of sparsentan as a treatment for primary focal segmental glomerulosclerosis (FSGS), a rare disorder characterized by massive proteinuria and progressive loss of kidney function. Patients (ranging in age from 8 years to 75 years) with biopsy-proven primary FSGS (or documentation of a genetic mutation in a podocyte protein associated with the disease) having baseline urine protein to creatinine (“UP/C”) ratios greater than 1 g/g and estimated glomerular filtration rates greater than 30 ml/min were eligible for the study. […]
as §2, with “The proportion of patients achieving UP/C ratio ≤1.5 g/g with >40% reduction in UP/C ratio at Week 8, a modified responder analysis, was evaluated as secondary endpoint.” left out

Compound | Patients with Edema, Severity Grade 0 [1] | Patients with Edema, Severity Grade 1+ to 2+ [1] | Patients with Edema, Severity Grade 3+ to 4+ [1] | Patients with Edema, Severity Grade 0 ([1]; 8 weeks) | Patients with Edema, Severity Grade 1+ to 2+ ([1]; 8 weeks) | Patients with Edema, Severity Grade 3+ to 4+ ([1]; 8 weeks) | Percent of patients having treatment emergent adverse effects: Any ([1]; 8 weeks) | Percent of patients having treatment emergent adverse effects: Drug-related ([1]; 8 weeks) | Percent of patients having treatment emergent adverse effects: Leading to dose change or interruption ([1]; 8 weeks) | Percent of patients having treatment emergent adverse effects: Leading to drug discontinuation ([1]; 8 weeks) | Percent of patients having treatment emergent adverse effects: Leading to study withdrawal ([1]; 8 weeks) | Percent of patients having treatment emergent adverse effects: Serious ([1]; 8 weeks) | Percent of patients with Cough ([1]; 8 weeks) | Percent of patients with Diarrhea ([1]; 8 weeks) | Percent of patients with Dizziness ([1]; 8 weeks) | Percent of patients with Edema/edema peripheral ([1]; 8 weeks) | Percent of patients with Fatigue ([1]; 8 weeks) | Percent of patients with Headache ([1]; 8 weeks) | Percent of patients with Hypotension/orthostatic hypotension ([1]; 8 weeks) | Percent of patients with Muscle spasms ([1]; 8 weeks) | also measured
CCCCC1=NC2(CCCC2)C(=O)N1Cc1ccc(-c2ccccc2-c2nnn[nH]2)cc1 [Irbesartan, irbesartan, reference compound] | 76% | 21% | 3% | 86% | 14% | 0% | 72.2% | 36.1% | 8.3% | 2.8% | 2.8% | 2.8% | 5.6% | 2.8% | 11.1% | 2.8% | 11.1% | 19.4% | 8.3% | 5.6% | Percent of patients with Nasal congestion ([1]; 8 weeks): 11.1%; Percent of patients with Nausea ([1]; 8 weeks): 8.3%; Percent of patients with Upper abdominal pain ([1]; 8 weeks): 5.6%; Percent of patients with Upper respiratory tract infection ([1]; 8 weeks): 5.6%; Percent of patients with Vomiting ([1]; 8 weeks): 2.8%; Percent of patients having treatment emergent adverse effects: Death [1]: 0%; change in N-terminal pro-B-type natriuretic peptide [2]: no significant change or difference; change in albumin [2]: no significant change or difference; change in eGFR [2]: no significant change or difference; change in serum potassium [2]: no significant change or difference; mean systolic and diastolic blood pressures relative to baseline [3]: reductions
CCCCC1=NC2(CCCC2)C(=O)N1Cc1ccc(-c2ccccc2S(=O)(=O)Nc2noc(C)c2C)c(COCC)c1 [Sparsentan, 4′-((2-butyl-4-oxo-1,3-diazaspiro[4.4]non-1-en-3-yl)methyl)-N-(4,5-dimethylisoxazol-3-yl)-2′-(ethoxymethyl)-[1,1′-biphenyl]-2-sulfonamide] | 66% | 32% | 2% | 65% | 30% | 5% | 76.7% | 43.8% | 23.3% | 4.1% | 2.7% | 2.7% | 4.1% | 8.2% | 13.7% | 12.3% | 4.1% | 19.2% | 16.4% | 0% | Percent of patients with Nasal congestion ([1]; 8 weeks): 2.7%; Percent of patients with Nausea ([1]; 8 weeks): 12.3%; Percent of patients with Upper abdominal pain ([1]; 8 weeks): 5.5%; Percent of patients with Upper respiratory tract infection ([1]; 8 weeks): 2.7%; Percent of patients with Vomiting ([1]; 8 weeks): 8.2%; Percent of patients having treatment emergent adverse effects: Death [1]: 0%; change in N-terminal pro-B-type natriuretic peptide [2]: no significant change or difference; change in albumin [2]: no significant change or difference; change in eGFR [2]: no significant change or difference; change in serum potassium [2]: no significant change or difference; mean systolic and diastolic blood pressures relative to baseline [3]: reduction was statistically significant

Source: US10864197B2, “Biphenyl sulfonamide compounds for the treatment of kidney diseases or disorders” (Retrophin, Inc., priority 2016, dated 2020)
